According to the ASAP Discovery antiviral challenge data (2025):
Converted amounts (≈) assume the structure as drawn. “And” between values parts separate entries of the source, which are not always exact repeats. Identical values can stand only once.

Tests used:
[1] = not given; remark: listed apart in the source
[2] = mdck_mdr1
[3] = mouse; liver_microsomes
[4] = human; liver_microsomes

Row | Compound | logD | solubility kinetic [1] | Papp [2] | microsomal CLint [3] | microsomal CLint [4]
1 | CC(C)[C@@H](Nc1ncnc2[nH]c(-c3cnn(C)c3C#N)cc12)c1ccc2c(c1)OCCO2 | 3.4 | 20 µM (≈ 8.59 µg/mL) | 51.1 nm/s | 129 µL/min/mg | 47 µL/min/mg
2 | CC(C)[C@H](CO)Nc1ncnc2[nH]ccc12 | 1.69 |  | 131 nm/s | 10 µL/min/mg | 6 µL/min/mg
3 | CC(C)[C@H](Nc1ncnc2[nH]c(-c3cnn(C)c3C#N)cc12)c1ccc2c(c1)OCCO2 | 3.3 | 15 µM (≈ 6.44 µg/mL) | 55.6 nm/s | 257 µL/min/mg | 706 µL/min/mg
4 | CNC(=O)c1cc(Cl)c(F)cc1NS(=O)(=O)c1ccc(Oc2ccccc2Cl)cc1 |  | 49 µM (≈ 23 µg/mL) | 61.1 nm/s | 45.6 µL/min/mg | 71.3 µL/min/mg
5 | CNC(=O)c1cc(Cl)ccc1NS(=O)(=O)c1ccc(Oc2ccccc2Cl)cc1 | 2.4 | 25 µM (≈ 11.3 µg/mL) | 49.1 nm/s | 94 µL/min/mg | 106 µL/min/mg
6 | COc1cc(Cc2c(-c3ccc(F)cc3)noc2C)nc(N2CCNCC2)n1 | 2.1 | 325 µM (≈ 125 µg/mL) | 47.8 nm/s | 33 µL/min/mg | 15 µL/min/mg
7 | COc1ccc(C(=O)Nc2cccc(/C=C3/C(=O)NC(=O)c4ccccc43)c2)cc1 | 3.6 | 23 µM (≈ 9.16 µg/mL) | 23.3 nm/s | 127 µL/min/mg | 180 µL/min/mg
8 | Cc1cc(-c2noc(C(F)(F)F)n2)ccc1OCCCc1cc(C(=O)N(C)C)no1 |  | 9 µM (≈ 3.82 µg/mL) | 22.6 nm/s | 24.4 µL/min/mg | 11 µL/min/mg
9 | Cc1cc(CCCOc2c(C)cc(-c3noc(C(F)(F)F)n3)cc2C)on1 | 4.2 | 18 µM (≈ 6.86 µg/mL) | 14.2 nm/s | 21.5 µL/min/mg | 11.6 µL/min/mg
10 | N#Cc1cc2c(cc1NC(=O)c1cc(F)cc3[nH]ncc13)CNC2 | 0.6 | 193 µM (≈ 62 µg/mL) | 39 nm/s | 288 µL/min/mg | 16.7 µL/min/mg
11 | NCc1cccc(NC(=O)[C@@H](NC(=O)OCc2ccccc2)c2ccc(OCc3ccccc3)cc2)c1 | 3.2 | 23 µM (≈ 11.4 µg/mL) | 15.3 nm/s | 1 µL/min/mg | 11 µL/min/mg
12 | O=C(/C=C/c1ccccc1)C(=O)N1CCN(CCc2ccccc2)CC1 | 3.3 | 239 µM (≈ 83.3 µg/mL) | 30 nm/s | 181 µL/min/mg | 167 µL/min/mg
13 | O=C(Nc1cc(Br)c2c(c1)CNC2)c1cc(F)cc2[nH]ncc12 | 1.8 | 4 µM (≈ 1.5 µg/mL) | 34 nm/s | 145 µL/min/mg | 13.6 µL/min/mg
14 | O=C(Nc1cc2c(cc1Br)CNC2)c1cc(F)cc2[nH]ncc12 | 1.1 | 47 µM (≈ 17.6 µg/mL) | 76.5 nm/s | 299 µL/min/mg | 11.4 µL/min/mg
15 | O=C(Nc1ccc2c(c1)CNC2)c1cc(Br)cc2[nH]c(-c3ccccc3)nc12 | 3.6 |  | 0.942 nm/s | 43.8 µL/min/mg | 12.8 µL/min/mg
16 | O=C(Nc1ccc2c(c1)CNC2)c1cc(F)cc(-c2cn[nH]c2)c1 | 0.7 | 184 µM (≈ 59.3 µg/mL) | 16.2 nm/s | 553 µL/min/mg | 36.3 µL/min/mg
17 | O=C(Nc1ccc2c(c1)CNC2)c1cccc2[nH]c(C(F)(F)F)cc12 | 1.5 | 372 µM (≈ 128 µg/mL) | 41 nm/s | 12.7 µL/min/mg | 14.1 µL/min/mg
18 | O=C(Nc1ccccc1)Nc1ccc(C(=O)NC2c3cccc(O)c3CC2C(=O)O)cc1 (centres undefined) | 0.12 | 319 µM (≈ 138 µg/mL) | 7 nm/s | 2 µL/min/mg | 9 µL/min/mg
19 | O=C(O)c1cc(Cl)ccc1NS(=O)(=O)c1ccc(Oc2ccccc2Cl)cc1 | 3 | 369 µM (≈ 162 µg/mL) | 40.1 nm/s | 13 µL/min/mg | 155 µL/min/mg
20 | CCCC[C@H](NC(=O)OC(C)(C)C)C(=O)N[C@H](C(=O)NCc1ccc(CN)cc1)c1ccc(OCc2ccccc2)cc1 (mixture of isomers) |  | 143 µM | 8.33 nm/s | 7.44 µL/min/mg | 56 µL/min/mg
21 | C[C@H](C(=O)O)[C@H](NC(=O)c1ncnc2[nH]ccc12)c1ccc(Br)cc1 (mixture of isomers) | 0.5 | 386 µM | 14 nm/s | 4 µL/min/mg | 5 µL/min/mg
22 | CC(C)(C)[C@H](Nc1ncnc2[nH]c(-c3cnn(CC(N)=O)c3)cc12)c1ccc2c(c1)OCCO2 (racemic) | 3.2 | 195 µM (≈ 90 µg/mL) | 16.6 nm/s | 47 µL/min/mg | 133 µL/min/mg
23 | CC(C)[C@H](Nc1ncnc(N)c1Cl)c1ccc2c(c1)S(=O)(=O)CCC2 (racemic) | 2.4 |  | 101 nm/s | 204 µL/min/mg | 79 µL/min/mg

Row | Compound | logD | solubility kinetic [1] | Papp [2] | microsomal CLint [3] | microsomal CLint [4]
24 | CC(C)[C@H](Nc1ncnc2[nH]c(-c3cnn(C)c3C#N)cc12)c1ccc2c(c1)NC(=O)CO2 (racemic) | 4.1 | 69 µM (≈ 30.5 µg/mL) | 30.7 nm/s | 177 µL/min/mg | 100 µL/min/mg
25 | CC(C)[C@H](Nc1ncnc2[nH]c(-c3cnn(C)c3C#N)cc12)c1ccc2c(c1)OCCO2 (racemic) | 3 | 17 µM (≈ 7.3 µg/mL) | 42 nm/s | 218 µL/min/mg | 74 µL/min/mg
26 | CC(C)[C@H](Nc1ncnc2[nH]c(-c3cnn(C)c3C#N)cc12)c1ccc2c(n1)OCCO2 (racemic) | 3.4 | 89 µM (≈ 38.3 µg/mL) | 128 nm/s | 139 µL/min/mg | 56 µL/min/mg
27 | CC(C)[C@H](Nc1ncnc2[nH]c(-c3cnn(CC(=O)N(C)C)c3)cc12)c1ccc2c(c1)OCCO2 (racemic) | 2.3 | 210 µM (≈ 99.9 µg/mL) | 11.4 nm/s | 59 µL/min/mg | 142 µL/min/mg
28 | CC(C)[C@H](Nc1ncnc2[nH]c(-c3cnn(CC(N)=O)c3)cc12)c1ccc2c(c1)NC(=O)CO2 (racemic) | 2.5 | 25 µM (≈ 11.5 µg/mL) | 13.6 nm/s | 11 µL/min/mg | 17 µL/min/mg
29 | CC(C)[C@H](Nc1ncnc2[nH]c(-c3cnn(CC(N)=O)c3)cc12)c1ccc2c(c1)OCCO2 (racemic) | 0.9 | 345 µM (≈ 154 µg/mL) | 9 nm/s | 41 µL/min/mg | 99 µL/min/mg
30 | CC(C)[C@H](Nc1ncnc2[nH]c(-c3cnn(CCC(N)=O)c3)cc12)c1ccc2c(c1)OCCO2 (racemic) | 3 | 236 µM (≈ 109 µg/mL) | 14.6 nm/s | 62 µL/min/mg | 99 µL/min/mg
31 | CC(C)[C@H](Nc1ncnc2[nH]cc(C(N)=O)c12)c1ccc2c(c1)OCCO2 (racemic) | 3.2 | 375 µM (≈ 138 µg/mL) | 111 nm/s | 142 µL/min/mg | 143 µL/min/mg
32 | CC(C)[C@H](Nc1ncnc2[nH]ccc12)c1ccc2c(c1)S(=O)(=O)CCC2 (racemic) | 2.5 | 385 µM (≈ 143 µg/mL) | 33 nm/s | 138 µL/min/mg | 37 µL/min/mg
33 | CCNC(=O)c1cc2c(N[C@H](c3ccc4c(c3)OCCO4)C(C)C)ncnc2[nH]1 (racemic) | 3 | 72 µM (≈ 28.5 µg/mL) | 24.1 nm/s | 88 µL/min/mg | 85 µL/min/mg
34 | CNC(=O)Cn1cc(-c2cc3c(N[C@H](c4ccc5c(c4)OCCO5)C(C)C)ncnc3[nH]2)cn1 (racemic) | 2.9 | 289 µM (≈ 133 µg/mL) | 19.4 nm/s | 47 µL/min/mg | 119 µL/min/mg
35 | CNC(=O)c1c[nH]c2ncnc(N[C@H](c3ccc4c(c3)NC(=O)CO4)C(C)C)c12 (racemic) | 3.2 | 28 µM (≈ 11 µg/mL) | 42.6 nm/s | 113 µL/min/mg | 86 µL/min/mg
36 | CNC(=O)c1c[nH]c2ncnc(N[C@H](c3ccc4c(c3)OCCO4)C(C)C)c12 (racemic) | 3.6 | 319 µM (≈ 122 µg/mL) | 162 nm/s | 88 µL/min/mg | 79 µL/min/mg
37 | CNC(=O)c1cc2c(N[C@H](c3ccc4c(c3)NC(=O)CO4)C(C)C)ncnc2[nH]1 (racemic) | 2.8 | 372 µM (≈ 147 µg/mL) | 8.73 nm/s | 20 µL/min/mg | 52 µL/min/mg
38 | CNC(=O)c1cc2c(N[C@H](c3ccc4c(c3)OCCO4)C(C)C)ncnc2[nH]1 (racemic) | 2.76 | 380 µM (≈ 145 µg/mL) | 19.6 nm/s | 55 µL/min/mg | 79 µL/min/mg
39 | COc1ccc([C@H](CC(=O)O)NC(=O)c2ncnc3[nH]ccc23)cc1 (racemic) | -0.38 |  | 17 nm/s | 2 µL/min/mg | 7 µL/min/mg
40 | COc1ccc([C@H](NC(=O)c2ncnc3[nH]ccc23)C(C)c2nnn[nH]2)cc1 (mixture of isomers) | 0 |  | 11.3 nm/s | 1 µL/min/mg | 2 µL/min/mg
41 | COc1ccc2c(c1)CCN(c1ncnc3[nH]ccc13)[C@H]2C(C)C (racemic) | 4.33 | 14 µM (≈ 4.51 µg/mL) | 70 nm/s | 321 µL/min/mg | 60 µL/min/mg
42 | Cn1ncc(-c2cc3c(N[C@H](c4ccc5c(c4)OCCO5)C(C)(C)C)ncnc3[nH]2)c1C#N (racemic) | 2.9 | 25 µM (≈ 11.1 µg/mL) | 27.9 nm/s | 199 µL/min/mg | 85 µL/min/mg
43 | O=C(Nc1cccc2c(C(=O)N[C@H]3c4ccccc4C[C@H]3C(=O)O)c[nH]c12)NC1CC1 (racemic) | -0.05 |  | 18 nm/s | 4 µL/min/mg | 6 µL/min/mg
44 | CC(C)[C@H](Nc1ncnc2[nH]c(-c3cnn(C)c3C#N)cc12)c1ccc2c(c1)NC(=O)CO2 (single isomer, unassigned) |  | 26 µM and 19 µM | 12.2 nm/s and 23.5 nm/s | 81 µL/min/mg and 147 µL/min/mg | 115 µL/min/mg and 52 µL/min/mg
45 | CNCc1cc(-c2cc3c(N[C@H](c4ccc5c(c4)S(=O)(=O)CCC5)C(C)C)ncnc3[nH]2)co1 (single isomer, unassigned) | 2.1 and 2.2 | 358 µM and 345 µM |  | 40 µL/min/mg and 54 µL/min/mg | 67 µL/min/mg and 133 µL/min/mg
